# Experimental data: patent US7858741B2, “Stabilization of the collagen triple helix by O-methylation of hydroxyproline residues” (Wisconsin Alumni Research Foundation, priority 2008, dated 2010)
# Like-named read-outs stand apart in the source and are kept apart here. Marks after values point to notes of the source that are not given here.
# Columns and labels:
# [1] = cited from earlier work
# [2] = cited from earlier work; remark: listed apart in the source
# [3] = Crystal structure conformation (main-chain dihedral angles, n→π* geometry); assay type: physicochemical; conditions: crystalline Ac-Mop-OMe
# Protocol: [^13CH3]Ac-Mop-OMe (10 mg) was dissolved in 1:1 CH2Cl2/hexanes (1 mL) and the solution was allowed to stand at room temperature in a loosely-capped vial. Slow evaporation afforded crystals suitable for X-ray analysis after ˜72 h (all solvent had evaporated).
# A colorless crystal with approximate dimensions 0.49×0.41×0.23 mm^3 was selected under oil under ambient conditions and attached to the tip of a nylon loop. The crystal was mounted in a stream of cold N2 (g) at 100(2) K and centered in the X-ray beam by using a video camera.
# The crystal evaluation and data collection were performed on a Bruker CCD-1000 diffractometer with Mo Kα (λ=0.71073 Å) radiation and the diffractometer-to-crystal distance of 4.9 cm.
# The initial cell constants were obtained from three series of scans at different starting angles. Each series consisted of 20 frames collected at intervals of 0.3° in a 6° range about ω with the exposure time of 10 s per frame. A total of 69 reflections were obtained. The reflections were indexed successfully by an automated indexing routine built in the SMART program. The final cell constants were calculated from a set of 4805 strong reflections from the actual data collection.
# Data were collected by using the full-sphere data collection routine. The reciprocal space was surveyed to the extent of a full sphere to a resolution of 0.80 Å. A total of 6155 data were harvested by collecting three sets of frames with 0.3° scans in ω and ? with an exposure time 10 s per frame. These highly redundant datasets were corrected for Lorentz and polarization effects. The absorption correction was based on fitting a function to the empirical transmission surface as sampled by multiple equivalent measurements. (Bruker-AXS. (2000-2003) SADABS V.2.05, SAINT V.6.22, SHELXTL V.6.10 & SMART 5.622 Software Reference Manuals. Bruker-AXS, Madison, Wis., USA.)
# The systematic absences in the diffraction data were consistent for the space groups P21 and P21/m.
# A successful solution by the direct methods provided most non-hydrogen atoms from the E-map. The remaining non-hydrogen atoms were located in an alternating series of least-squares cycles and difference Fourier maps. All non-hydrogen atoms were refined with anisotropic displacement coefficients. All hydrogen atoms were found in the difference map and refined independently. The absolute configuration was assigned from the known synthetic procedure.
# The final difference Fourier map was featureless. The molecular diagram is drawn with 50% probability ellipsoids as depicted in FIG. 2.
# [4] = Thermal denaturation of collagen triple helices by circular dichroism (Tm); assay type: physicochemical; conditions: for Tm, water / Tm, EG(aq): circular dichroism, peptide 200 μM; for Tm, water: 50 mM HOAc (pH 3.0); for Tm, EG(aq): 2:1 EG/50 mM HOAc (pH 3.0)
# Protocol: CD spectra were recorded with an Aviv 202SF circular dichroism spectrometer. Spectra were recorded on peptide solutions (100 μM in 50 mM HOAc (pH 2.9)) that had been incubated at ≦4° C. for ≧48 h in 1-nm increments with a 3-s averaging time, 1-nm bandpass, and 0.1-cm pathlength. Samples for thermal stability experiments were generated by incubating peptide solutions (200 μM) at 4° C. for ≧48 h. The solutions were then heated from 4° C. to 97° C. (for samples in 50 mM HOAc (aq) (pH 2.9)) or to 106° C. (for samples in 2:1 ethylene glycol/50 mM HOAc(aq)) at 3-° C. increments with a 5-min equilibration at each step. The ellipticity at 225 nm was monitored with a 5-s averaging time, 1-nm bandpass, and 0.1-cm pathlength. Values of Tm were determined by fitting the data to a two-state model. (See Becktel and Schellman Biopolymers 26:1859-1877 (1987)).
# [5] = cited from earlier work; for ΔG: values from Nishi et al. (2005) (Kobayashi and coworkers); for ΔG / TΔS / ΔH: normalized to T°=71.9° C.; for TΔS / ΔH: values from Nishi et al. (2005)
# [6] = value from Holmgen et al. Nature 392:666-667 (1998); cited from earlier work
# [7] = Sakakibara et al. (1973); cited from earlier work
# [8] = Differential scanning calorimetry (DSC) of triple-helix unfolding; assay type: physicochemical; conditions: for Tm (DSC exotherm maxima): scan rate 15° C./h; for TΔS / ΔG / ΔH: DSC
# Protocol: DSC measurements were conducted on a VP-DSC instrument (MicroCal, LLC, Northampton, Mass.). For each peptide, an instrument baseline was established by filling both the sample and the reference cell with degassed 50 mM HOAc(aq) (pH 2.9) and scanning from 5-98° C. at 15° C./h until at least 3 consecutive overlaying scans were observed. The last of these scans was used as the baseline for each subsequent peptide scan.
# Peptide solutions (˜0.5 mg/mL in 50 mM HOAc(aq)), incubated at 4° C. for ≧48 h, were degassed and loaded into the sample cell (without removing the reference solution) during the cool down from the final baseline scan (at ˜15° C.). Samples were scanned from 5-98° C. at 15° C./h; the first scan of each sample was used in the analysis. […] Nevertheless, a second run with a fresh sample (incubated at 4° C. for ≧48 h) gave a trace that overlaid with the initial scan for both peptides.
# After DSC measurements, peptide concentrations were determined by quantitative amino acid analysis (Scientific Research Consortium, Inc., St. Paul, Minn.). Peptide concentrations of 231 μM for (ProHypGly)10 and 129 μM for (ProMopGly)10 were calculated from the average of Gly and Pro content.
# Data processing was done using the MicroCal software in the Origin 7 program (OriginLab Corp., Northampton, Mass.). For each sample, the appropriate reference scan was subtracted from the sample scan and the data were normalized to the monomer concentrations (determined above).
# Values of ΔH (per mole of monomer) were obtained by direct integration of the DSC exotherms. Using ΔH and the exotherm maxima as the Tm (64.3° C. for (ProHypGly)10 and 73.8° C. for (ProMopGly)10), TΔS (at Tm) was calculated with the equation: Tm=ΔH/(ΔS+R·1n(0.75c^2)), where c is the concentration of monomeric peptide. (See Engel and Bäichinger P. Top. Curr. Chem. 247:7-33 (2005)). Values of ΔG were then calculated with the equation: ΔG=ΔH−TΔS. […] (See Nishi et. al. (2005)). The data of Kobayashi and coworkers were normalized to T°=71.9° C. (which is the T° for (ProProGly)10, i.e. where ΔG=0). Because our thermodynamic data for (ProMopGly)10 were determined at nearly the same temperature (73.8° C.), comparisons of the three peptides are meaningful.
# [9] = compared with (ProProGly)10 chains; Chopra and Ananthanarayanan (1982); cited from earlier work
# [10] = mean values from two molecules in ref 18
# [11] = values from Bretscher et al. (2001)
# [12] = mean values for Hyp in 13 (Bella et al. 1994; Miles and Burjanadze 2001)
compound,measurement,setting,value
COC(=O)[C@@H]1C[C@@H](F)CN1C(C)=O [Ac-Flp-OMe],φ,[1]; [10],−55.0 °
same,ψ,[1]; [10],140.5 °
same,ω,[1]; [10],−178.9 °
same,Kt/c,[2]; [11],6.7
COC(=O)[C@@H]1C[C@@H](O)CN1C(C)=O [Ac-Hyp-OMe],φ,[1]; [10],−57.0 °
same,ψ,[1]; [10],150.8 °
same,ω,[1]; [10],−178.8 °
same,Kt/c,[2]; [11],6.1
"COC(=O)[C@@H]1C[C@@H](OC)CN1C(C)=O [Ac-Mop-OMe, N-(2-^13CH3-Acetyl)-(2S,4R)-4-methoxyproline methyl ester]",φ,[3],−58.1 ± 0.1 °
same,ψ,[3],147.7 ± 0.1 °
same,ω,[3],−179.7 ± 0.1 °
same,Oi-1...C′i=Oi angle,[3]; n→π* interaction,94.6 °
same,Oi-1...C′i=Oi distance,[3]; n→π* interaction,2.84 Å
(ProEopGly)10,triple-helix stability compared with Hyp (or Mop),"[4]; in water, no value or method printed",less stable
(ProFlpGly)10 [Peptide 3],ΔG,[5],−3.3^c kcal/mol
same,TΔS,[5],−17.2^c kcal/mol
same,ΔH,[5],−20.5^c kcal/mol
same,"Tm, water",[6],91^d ° C.
(ProProGly)10,melting temperature of a triple helix,[7],24 °C
same,T° (where ΔG=0),[5]; data of Kobayashi and coworkers (Nishi et al. 2005),71.9 °C
(ProHypGly)10 [Peptide 1],melting temperature of a triple helix,[7],58 °C
same,ΔG,[5],−2.0^c kcal/mol
same,ΔG,[5]; listed as (ProHypGly)10,-2.0 kcal/mol
same,TΔS,[5],−33.2^c kcal/mol
same,ΔH,[5],−35.2^c kcal/mol
same,Tm (DSC exotherm maxima),[8]; 50 mM HOAc,64.3 °C
same,TΔS,[8]; at 64.3° C.,-27.3 kcal/mol
same,ΔG,[8]; at 64.3° C.,-2.2 kcal/mol
same,ΔH,[8]; at 64.3° C.,-29.5 kcal/mol
same,rate at which chains fold into a triple helix,[9],substantially greater
same,"Tm, water",[4],62.0 °C
same,"Tm, EG(aq)",[4],77.1 °C
same,φ,[1]; [12],−59.6 °
same,ψ,[1]; [12],149.8 °
same,ω,[1]; [12],178.5 °
same,Kt/c,[2]; Hyp in 13 (triple helix),∞
(ProMopGly)10 [Peptide 2],Tm (DSC exotherm maxima),[8]; 50 mM HOAc,73.8 °C
same,TΔS,"[8]; at Tm 73.8° C., calculated from ΔH and Tm",-25.2 kcal/mol
same,ΔH,"[8]; per mole of monomer, 50 mM HOAc, at 73.8° C.",-27.9 kcal/mol
same,ΔG,"[8]; ΔG=ΔH−TΔS, at 73.8° C.",-2.7 kcal/mol
same,stability of triple helix compared with triple helical peptide 1,[4]; aqueous ethylene glycol,more stable
same,"Tm, water",[4],70.1 °C
same,"Tm, EG(aq)",[4],89.1 °C
same,conformational stability of triple helices compared with those of 1,[4]; in water (50 mM HOAc),substantially more conformational stability
